This note sets out measurements from patent US6706740B2, “Fungicidal heterocyclic aromatic amides and their compositions, methods of use and preparation” (Dow AgroSciences LLC, priority 1999, dated 2004).

Test [1] concerns Magnaporthe grisea (Pyricularia oryzae—PYRIOR). Kind of test: microbe, parasite or virus in culture. Format: cell-based. The settings on record: Pyricularia oryzae, read-out: PYRIOR in vitro Growth Inhibition.
Test [2] relates to Rhizoctonia solani (RHIZSO). Kind of test: microbe, parasite or virus in culture. The settings on record: Rhizoctonia solani, read-out: RHIZSO in vitro Growth Inhibition. Format: cell-based.
The subject of test [3] is Mycosphaerella graminicola (Septoria tritici—SEPTTR). The test can be described thus: In vitro fungal growth inhibition, Mycosphaerella graminicola (SEPTTR). Format: cell-based. The settings on record: Zymoseptoria tritici, read-out: SEPTTR in vitro Growth Inhibition.
Test [4] has as its system Stagonospora nodorum (Leptosphaeria nodorum—LEPTNO). Kind of test: In vitro fungal growth inhibition, Stagonospora nodorum (LEPTNO). Particulars: Leptosphaeria, read-out: LEPTNO in vitro Growth Inhibition. It counts as cell-based.
Test [5] deals with Ustilago maydis (USTIMA). The test can be described thus: microbe, parasite or virus in culture. It counts as cell-based. Particulars: Mycosarcoma maydis, read-out: USTIMA in vitro Growth Inhibition.
Test [6] deals with Phytophthora infestans (PHYTIN). Kind of test: microbe, parasite or virus in culture. Format: cell-based. The settings on record: Phytophthora infestans, read-out: PHYTIN in vitro Growth Inhibition.
Test [7] concerns Phytophthora infestans—PHYTIN. The test can be described thus: whole plant or invertebrate. It counts as in vivo. The settings on record: Phytophthora, in Solanum lycopersicum, 24 h, read-out: PHYTIN in vivo 1 Day Protectant.
The subject of test [8] is Puccinia recondita—PUCCRT. The test can be described thus: Brown Rust of Wheat, in vivo whole plant, 24 Hour Protectant. Particulars: control of fungal infection vs untreated plants; for pest or weed control at 100 ppm: Puccinia, read-out: PUCCRT in vivo 1 Day Protectant.
For test [9], the system named is Erysiphe graminis—ERYSGT. Kind of test: Powdery Mildew of Wheat, in vivo whole plant, 24 Hour Protectant. Particulars: Erysiphe, control of fungal infection vs untreated plants, read-out: ERYSGT in vivo 1 Day Protectant.
Test [10] concerns Septoria tritici—SEPTTR. Kind of test: Leaf Blotch of Wheat, in vivo whole plant, 24 Hour Protectant. The settings on record: Zymoseptoria tritici, 24 h, control of fungal infection vs untreated plants, read-out: SEPTTR in vivo 1 Day Protectant.
In test [11] the test system is Leptosphaeria nodorum—LEPTNO. Kind of test: Glume Blotch of Wheat, in vivo whole plant, 24 Hour Protectant. The settings on record: control of fungal infection vs untreated plants; for pest or weed control at 100 ppm: Leptosphaeria, read-out: LEPTNO in vivo 1 Day Protectant.
Setting [12] is: 100 ppm spray, 24 hour protectant, wheat.
Where [13] appears, read: 100 ppm spray, wheat, 24 hour protectant.
Where [14] appears, read: wheat plants sprayed at 100 ppm, inoculated after 24 hours.

Like-named read-outs stand apart in the source and are kept apart here. Where only a bound is given, the exact number is not on record here.

In the case of `COc1ccnc(C(=O)NC2CC(C)(C)C(OC(=O)CC(C)C)C(C)(C)C2)c1O` (stereo not drawn) [Compound 267], the inhibition at 25 ppm in [1] was below 80%; in [2] it was below 80%; in test [3] (25 ppm in growth medium), below 80%; in [4] (25 ppm in growth medium) it was above 80%; in test [5] it was above 80%; in test [6] it was above 80%. Moreover, the pest or weed control at 100 ppm in [7] is below 25%; in test [8] (setting [12]), 25 to 74%; in [9] (setting [12]), below 25%; in test [10] (setting [12]) it was below 25%; in [11] (setting [12]), 25 to 74%.
With `COc1ccnc(C(=O)N[C@H]2COC(=O)[C@H](Cc3ccccc3)[C@@H](OC(=O)C3CC3)[C@H](C)OC2=O)c1O` [Compound 387], the inhibition at 25 ppm in test [1] was above 80%; in test [2], above 80%; in [3] (25 ppm in growth medium) it was above 80%; in [4] (25 ppm in growth medium), above 80%; in [5], above 80%; in [6], below 80%. Moreover, the pest or weed control at 100 ppm in test [7] was below 25%; in test [8] (setting [13]), 25 to 74%; in [9] (setting [13]), 25 to 74%; in test [10] (setting [13]), 25 to 74%. For the same compound, in [11] (setting [13]), the “LEPTNO in vivo 1 Day Protectant” value was “+ +”.
As for `COc1ccnc(C(=O)N[C@H](C(=O)O[C@@H](C)[C@H](OC(=O)C(C)C)[C@@H](Cc2ccccc2)C(=O)OCc2ccccc2)[C@@H](C)OC(C)=O)c1O` [Compound 361], the inhibition at 25 ppm in test [1] is above 80%; in [2], below 80%; in test [3] (25 ppm in growth medium) it was above 80%; in [4] (25 ppm in growth medium), below 80%; in test [5], below 80%; in test [6], above 80%. Also, the pest or weed control at 100 ppm is below 25% in [7], below 25% in test [9] (setting [13]), below 25% in test [10] (setting [13]) and 25 to 74% in test [11] (setting [13]). Further, the “PUCCRT in vivo 1 Day Protectant” value in [8] (setting [13]) is listed as “+ +”.
For `O=C(NC(Cc1ccccc1)c1ccccc1)c1nc(Br)ccc1O` (stereo not drawn) [Compound 491], the inhibition at 25 ppm in [1] was below 80%; in test [2], below 80%; in test [3] (25 ppm in the growth medium), below 80%; in test [4] (25 ppm in the growth medium), below 80%; in [5], below 80%; in test [6], above 80%. Further, the pest or weed control at 100 ppm in test [7], in test [8] (setting [14]), in test [9] (setting [14]), in test [10] (setting [14]) and in test [11] (setting [14]) was below 25% in each case.
With `COc1ccnc(C(=O)Nc2ccc(Oc3ccc(C)cc3)cc2)c1O` [Compound 417], the inhibition at 25 ppm in test [1] was above 80%; in [2], below 80%; in [3] (25 ppm in growth medium) it was above 80%; in test [4] (25 ppm in growth medium), below 80%; in test [5], below 80%; in [6], below 80%. Also, the pest or weed control at 100 ppm in test [7], in test [8] (setting [13]), in test [9] (setting [13]) and in test [10] (setting [13]) was below 25% throughout. Also, in [11] (setting [13]), the “LEPTNO in vivo 1 Day Protectant” value is “+ +”.
`COC(=O)C(COC(=O)CC(C)OC(=O)C(C)C)NC(=O)c1nccc(OC)c1O` (stereo not drawn) [Compound 347]: the inhibition at 25 ppm in test [1], in [2], in [3] (25 ppm in growth medium), in test [4] (25 ppm in growth medium), in [5] and in test [6] was below 80% each time. Also, the pest or weed control at 100 ppm in test [7] was below 25%; in test [8] (setting [13]) it was 25 to 74%; in [9] (setting [13]), below 25%; in test [10] (setting [13]) it was below 25%; in test [11] (setting [13]), 25 to 74%.

Usually inhibition stands for the percentage by which the read-out fell short of the control.
